# Data: patent publication US20190008864A1, “PHARMACEUTICAL COMPOSITION CONTAINING GPR119 LIGAND AS EFFECTIVE INGREDIENT FOR PREVENTING OR TREATING NON-ALCOHOLIC STEATOHEPATITIS” (PHARMEDIX.CO., LTD., priority 2014, published 2019)
# Columns and labels:
# SREBP-1c = assay: SREBP-1C expression in HepG2 under high glucose/insulin with GPR119 ligand plus AMPK or PKA inhibitor; format: cell-based, human
# Experimental: (§1) Sodium dodecyl sulfate-polyacrylamide gel electrophoresis (SDS-PAGE) was carried out by means of a gel electrophoresis device (Mighty Small SE 250, Hoefer Scientific Instruments, San Francisco) according to a method by Laemmli (UK, Nature 227, 680-685, 1970). Each of cell lysate fractions was diluted with a buffer solution for sample dilution [63 mM Tris (pH. 6.8), 10% glycerol, 2% SDS, 0.0013% bromophenol blue, and 5% β-mercaptoethanol], and then electrophoresed on a 8% or 10% gel in an electrode buffer solution (1 l of the solution contained 15 g of Tris, 72 g of glycerin, and 5 g of SDS). […] Whether total protein contents in samples are the same is determined using anti-β-actin and anti-LaminA/C antibodies. Changes in protein expression amounts were determined by measuring the intensities of chemiluminescence signals on the blot by means of densitometry. […] Each lane was calculated using AlphaEase™ version 5.5 software and background intensity was removed from the calculated values. […]
# An experiment therefor was performed as follows. […] Protein expression change was measured using the western blotting method of the method D.
# [1] = test system: fatty liver model induced by a high-fat diet; assay: Fatty liver model induced by high-fat diet; format: in vivo, C57BL/6J mice; conditions: animal models fed with a high-fat diet
# From the text: In the present invention, a high fat diet (HFD: 60% fat calories, Research diets, D12492, US) was used as an obesity induction diet.
# Six-week-old male C57BL/6J mice (Central Lab. Animal Inc., Seoul, Korea) were acclimated to an experimental environment for one week while being fed solid food, and then randomly divided into a control group and an experimental group for a high-fat diet using a randomized block design. The animal groups were fed for 12 weeks, and thus, fatty liver animal models were established. Fatty liver development was determined according to blood biochemical and histochemical analysis methods. The mice were orally fed with the high-fat diet only for six weeks, and in combination with a GPR119 ligand (10 mg/kg) suspended in 40% PEG400 once a day for five days every week. Choline-deficient, amino acid-fixed high-fat diet steatohepatitis models were prepared by feeding six-week-old male C57BL/6J mice (Central Lab. Animal Inc., Seoul) with a diet containing 60 kcal fat and 0.1% methionine for four weeks. After terminating the experiment, experimental animals fasted for 12 hours or more. Subsequently, blood, liver, and adipose tissues in intestines (epididymal fat, kidney-surrounding fat) were collected from the animals that had been anesthetized with diethyl ether and then washed with a 0.1 M phosphate buffered saline (pH 7.4), followed by being weighed. Blood collected from abdominal aortas was centrifuged at 3000 rpm for 20 minutes using SST tubes to separate serum.
# A total cholesterol concentration and a total glucose concentration in serum from each of the aforementioned experimental animals raised for 12 weeks were measured as follows. Each of the total cholesterol concentration and the total glucose concentration in serum was measured twice by means of a commercial measurement kit (Bio Clinical Systems). The amount of alanine aminotransferase (ALT) in blood used as a liver function index was measured by means of a commercial analysis kit (Bio Clinical Systems, Korea).
# The collected liver tissues were fixed with a 10% neutral formalin solution and then subjected to a common fixation procedure and dehydration process, followed by embedding the same in paraffin. The embedded tissues were sectioned to a thickness of 4 μm and stained with H&E. The stained tissues were observed by means of an optical microscope.
# A predetermined amount of each of the liver tissues was homogenized in liquid nitrogen and a cell lysis buffer in a mortar, and then a lysed tissue solution was transferred to a new tube, followed by vortexing. […] A middle layer of the centrifuged solution was collected and then subjected to protein quantification by the Bradford assay. […] Expression changes of FAS and SREBP-1c proteins were measured by western blotting. […]
# [2] = test system: mouse liver tissue and hepatocyte line; assay: Summary statement: mouse liver tissue and hepatocyte line treated with the two GPR119 ligands; format: cell-based
# SREBP-1c protein [3] = assay: SREBP-1c expression after T0901317 treatment, HepG2 (western blot); format: cell-based, human; conditions: 10 μM T0901317 alone, nine hours, compared to no treatment
# Experimental: (§2) A 6-well plate was inoculated with HepG2 (ATCC, US), as a human hepatocyte line, and cultured until confluence in a DMEM medium containing 1% penicillin-streptomycin (Hyclone, US) and 10% fetal bovine serum (Hyclone, US) in a 5% CO2 incubator at 37° C. The medium containing 10% fetal bovine serum of the hepatocyte line grown to confluence was replaced by a medium not containing FBS. The cell line was additionally cultured for 18 hours and used as a sample for an experiment.
# as §1, with “1970).” for “1970). Each of cell lysate fractions was diluted with a buffer solution for sample dilution [63 mM Tris (pH. 6.8), 10% glycerol, 2% SDS, 0.0013% bromophenol blue, and 5% β-mercaptoethanol], and then electrophoresed on a 8% or 10% gel in an electrode buffer solution (1 l of the solution contained 15 g of Tris, 72 g of glycerin, and 5 g of SDS).”
# SREBP-1c protein [4] = assay: SREBP-1c expression after T0901317 treatment, primary hepatocytes (western blot); format: cell-based, mouse; conditions: 10 μM T0901317 alone, nine hours, compared to no treatment
# Experimental: Liver cells were collected from male C57BL/6 mice (Central Lab. Animal Inc., Seoul) according to a method by Seglen et al. (Exp Cell Res., 82, pp 391-398, 1973). Each C57BL/6 mouse was anesthetized and then the abdomen thereof was incised. Subsequently, the hepatic portal vein was intubated and a gas mixture of 5% CO2 and 95% O2 was insufflated thereinto. A Ca^2+ and Mg^2+-free Hank's balanced salt solution at 37° C. was flowed into the tube to remove blood in the liver. Subsequently, a 0.1% collagenase type IV (Sigma, US) solution was flowed thereinto. The liver tissue was removed from the body, and then prepared into a hepatocyte suspension. The prepared hepatocyte suspension was centrifuged at 50×g for two minutes. […]
# Sodium dodecyl sulfate-polyacrylamide gel electrophoresis (SDS-PAGE) was carried out by means of a gel electrophoresis device (Mighty Small SE 250, Hoefer Scientific Instruments, San Francisco) according to a method by Laemmli (UK, Nature 227, 680-685, 1970). […] Whether total protein contents in samples are the same is determined using anti-β-actin and anti-LaminA/C antibodies. Changes in protein expression amounts were determined by measuring the intensities of chemiluminescence signals on the blot by means of densitometry. […] Each lane was calculated using AlphaEase™ version 5.5 software and background intensity was removed from the calculated values. […]
# SCD-1 mRNA = SCD-1 mRNA expression after T0901317 treatment, HepG2 (real time PCR); format: cell-based, human; conditions: 10 μM T0901317 alone
# Experimental: as §2
# (§3) 1 ml of a TRIzol solution was added to each of cell samples to lyse the cells. Subsequently, centrifugation was carried out at 4° C. and 12,000×g for 10 minutes. […]
# (§4) A supernatant was transferred to a new tube and then isopropanol was added thereto in the same amount as the supernatant. […] The concentration of an extracted RNA sample was measured at wavelengths of 260 nm and 280 nm by means of a UV/VIS spectrum analyzer (Nanodrop, Thermo, US) and cDNAs were synthesized therefrom using an RT kit. […]
# (§5) A medium containing the GPR119 ligand (MBX-2982, GSK-1292263A) was added to a human hepatocyte line (HepG2) cultured as in the method C and, 30 minutes later, the cell line was treated with 10 μM T0901317 for nine hours. […] To investigate mRNA expression change in SCD-1 and FAS, RNAs were isolated and cDNAs were synthesized therefrom as in the method E. mRNA expression levels were measured using real time-PCR as in the method F.
# FAS mRNA = FAS mRNA expression after T0901317 treatment, HepG2 (real time PCR); format: cell-based, human; conditions: 10 μM T0901317 alone
# Experimental: as §2, §3, §4, §5
smiles,measurement,setting,value
c1cc(-c2cnn3cc(-c4ccc(OCCN5CCCCC5)cc4)cnc23)ccn1 [Compound C],SREBP-1C expression inhibition due to MBX2982 upon AMPK inhibitor treatment,SREBP-1c; 3 μM MBX2982 plus Compound C,recovered
"CC(C)c1noc(N2CCC(COc3ccc(-c4ccc(S(C)(=O)=O)cc4)nc3)CC2)n1 [GSK1292263, 3-isopropyl-5-(4-(((6-(4-(methylsulfonyl)phenyl)pyridin-3-yl)oxy)methyl)piperidin-1-yl)-1,2,4-oxadiazole]",fatty liver development,[1],completely inhibited
same,activity of SREBP-1c,[2],inhibited
same,expression of GPR119,[2],increased
same,expression of acetyl CoA carboxylase (ACC),[2],inhibited
same,expression of fatty acid synthase (FAS),[2],inhibited
same,expression of stearoyl-CoA desaturase (SCD),[2],inhibited
O=S(=O)(NCCNC/C=C/c1ccc(Br)cc1)c1cccc2cnccc12 [H-89],function of the GPR119 ligand affecting SREBP-1C upon PKA inhibitor treatment,SREBP-1c; 3 μM GPR119 ligand plus H-89,not affected
"O=S(=O)(c1ccccc1)N(CC(F)(F)F)c1ccc(C(O)(C(F)(F)F)C(F)(F)F)cc1 [T0901317, N-(2,2,2-Trifluoroethyl)-N-[4-[2,2,2-trifluoro-1-hydroxy-1-(trifluoromethyl)ethyl]phenyl]benzenesulfonamide]",expression level of SREBP-1c,SREBP-1c protein [3],greatly increases
same,expression level of SREBP-1c,SREBP-1c protein [4],greatly increases
same,mRNA expression level of SCD-1,SCD-1 mRNA,increased
same,mRNA expression level of FAS,FAS mRNA,increased
